In data set [1] the target is CYP2C9 (Homo sapiens, UniProt P11712). The data set can be described thus: Drug metabolism in assessed as human CYP2C9-mediated metabolism. The settings on record: recombinant enzyme. It is filed as ADME.
Data set [2] has as its target T1, Cytochrome P450 2C9 (Homo sapiens, UniProt P11712). As to the kind of experiment: Drug metabolism in assessed as human CYP2C9-mediated maximum rate of reaction per mg protein. It is filed as ADME. The settings on record: recombinant enzyme.
In data set [3] the target is T1, Cytochrome P450 2C9. The data set can be described thus: Drug metabolism in assessed as human CYP2C9-mediated intrinsic clearance per mg protein. It is filed as ADME. The settings on record: recombinant enzyme.
Data set [4] can be described thus: Drug metabolism in human liver microsomes by multiple depletion curves method.
Data set [5] in a line: Drug metabolism in human liver microsomes by optimal design approach.
Data set [6] concerns Liver microsome. As to the kind of experiment: Drug metabolism in human liver microsomes assessed as intrinsic clearance per mg protein by multiple depletion curves method.
Data set [7] has as its system Liver microsome. As to the kind of experiment: Drug metabolism in human liver microsomes assessed as intrinsic clearance per mg protein by optimal design approach.
A short description of data set [8]: Drug metabolism in assessed as human CYP3A-mediated intrinsic clearance per mg protein. The settings on record: recombinant enzyme. It is filed as ADME.
Data set [9] in a line: Drug metabolism in assessed as human CYP3A-mediated maximum rate of reaction per mg protein. The data set is classed as ADME. The settings on record: recombinant enzyme.
Data set [10] relates to CYP3A. The data set can be described thus: Drug metabolism in assessed as human CYP3A-mediated metabolism. It is filed as ADME. The settings on record: recombinant enzyme.
In data set [11] the target is CYP2D6 (Homo sapiens, UniProt P10635). The data set can be described thus: Drug metabolism in assessed as human CYP2D6-mediated metabolism. It is filed as ADME. The settings on record: recombinant enzyme.
Data set [12] deals with T2, Cytochrome P450 2D6 (Homo sapiens, UniProt P10635). The data set can be described thus: Drug metabolism in assessed as human CYP2D6-mediated maximum rate of reaction per mg protein. It is filed as ADME. The settings on record: recombinant enzyme.
Data set [13] concerns the target T3, Cytochrome P450 1A2 (Homo sapiens, UniProt P05177).
T3 sequence (P05177 whole entry): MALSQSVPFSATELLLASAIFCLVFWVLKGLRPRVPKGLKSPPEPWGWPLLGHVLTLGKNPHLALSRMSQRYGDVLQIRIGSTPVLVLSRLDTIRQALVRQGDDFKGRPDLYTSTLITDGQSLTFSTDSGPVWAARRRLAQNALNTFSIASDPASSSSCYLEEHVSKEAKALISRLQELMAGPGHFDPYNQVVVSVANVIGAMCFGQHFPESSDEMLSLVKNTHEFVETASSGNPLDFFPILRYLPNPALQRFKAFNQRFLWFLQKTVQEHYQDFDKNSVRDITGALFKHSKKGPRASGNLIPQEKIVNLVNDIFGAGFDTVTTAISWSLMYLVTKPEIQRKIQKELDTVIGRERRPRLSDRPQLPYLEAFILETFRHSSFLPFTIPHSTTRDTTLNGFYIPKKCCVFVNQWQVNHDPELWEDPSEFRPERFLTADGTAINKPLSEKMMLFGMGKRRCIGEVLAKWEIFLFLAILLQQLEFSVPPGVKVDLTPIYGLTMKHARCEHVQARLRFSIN
The data set can be described thus: Drug metabolism in assessed as human CYP1A2-mediated intrinsic clearance per mg protein. The settings on record: recombinant enzyme.

The target of data set [14] is T3, Cytochrome P450 1A2. As to the kind of experiment: Drug metabolism in assessed as human CYP1A2-mediated maximum rate of reaction per mg protein. The settings on record: recombinant enzyme. The data set is classed as ADME.
Data set [15] concerns the target T2, Cytochrome P450 2D6. The data set can be described thus: Drug metabolism in assessed as human CYP2D6-mediated intrinsic clearance per mg protein. The data set is classed as ADME. The settings on record: recombinant enzyme.
Substrate in data set [16]: CN(C)CCCN1c2ccccc2CCc2ccccc21
As to the kind of experiment: not read.

Substrate in data set [17]: CCc1cccc2cc(C(O)CNC(C)(C)C)oc12
As to the kind of experiment: not read.

T1 sequence (P11712 whole entry): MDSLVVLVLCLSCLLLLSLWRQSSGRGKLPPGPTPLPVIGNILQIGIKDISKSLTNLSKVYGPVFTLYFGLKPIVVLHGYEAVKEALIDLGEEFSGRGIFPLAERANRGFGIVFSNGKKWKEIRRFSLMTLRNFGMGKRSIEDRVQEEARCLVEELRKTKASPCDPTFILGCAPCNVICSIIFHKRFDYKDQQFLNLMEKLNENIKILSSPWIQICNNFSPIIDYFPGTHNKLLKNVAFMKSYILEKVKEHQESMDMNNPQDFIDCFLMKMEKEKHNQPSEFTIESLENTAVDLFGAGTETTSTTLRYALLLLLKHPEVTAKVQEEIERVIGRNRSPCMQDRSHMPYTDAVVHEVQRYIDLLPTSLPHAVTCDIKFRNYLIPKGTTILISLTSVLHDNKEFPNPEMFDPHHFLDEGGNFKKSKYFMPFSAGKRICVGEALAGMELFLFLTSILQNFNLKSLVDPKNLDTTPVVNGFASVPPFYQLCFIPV
Chain of CYP2C9 (P11712 whole entry): as above

Consider `O=C(O)Cc1ccccc1Nc1c(Cl)cccc1Cl` [DICLOFENAC], for which the Michaelis constant (Km) is 1.7 µM in data set [1], 11.6 µM in [4] (microsomes) and 8.55 µM in [5] (microsomes). The maximum rate (Vmax) in [2] stood at 710 pmol/min. Moreover, the clearance in data set [3] worked out at 130 µL/min/mg.
On to `CCN(CC)Cc1cc(Nc2ccnc3cc(Cl)ccc23)ccc1O` [AMODIAQUINE], for which the figures for the CLH in data set [6] and in [7] were 829 µL/min/g and 224 µL/min/g, respectively. In addition, the Km in [4] (microsomes) was 3.33 µM; in data set [5] (microsomes), 5.17 µM.
For the molecule `Cc1ncc2n1-c1ccc(Cl)cc1C(c1ccccc1F)=NC2` [MIDAZOLAM], the values for the CLH in data set [6] and in data set [7] were 717 µL/min/g and 220 µL/min/g, respectively. In addition, the CL in [8] amounted to 159 µL/min/g. Besides, the Vmax in data set [9] is 636 pmol/min. The results for the Km in data set [10], in data set [4] (microsomes) and in [5] (microsomes) were 1.2 µM, 1.26 µM and 3.04 µM, respectively.
Take `COc1ccc2c(c1)[C@]13CCCC[C@@H]1[C@H](C2)N(C)CC3` [DEXTROMETHORPHAN]: the Michaelis constant (Km) in data set [11] came to 1.4 µM; in data set [4] (liver microsomes), 7.16 µM; in data set [5] (liver microsomes), 6.32 µM. Moreover, the CLH was determined as 84.1 µL/min/g in [6] and 54.2 µL/min/g in data set [7]. In data set [12], the maximal velocity (Vmax) is recorded as 140 pmol/min.
For the molecule `CCOc1ccc(NC(C)=O)cc1` [PHENACETIN], the CL in [13] came out at 14.6 µL/min/g. Besides, the CLH in data set [6] worked out at 39.5 µL/min/g; in data set [7], 50.4 µL/min/g. The Vmax in [14] is given as 322 pmol/min. The Km in [4] (liver microsomes) and in data set [5] (liver microsomes) was 22.6 µM throughout.
Consider `COc1ccc([C@@H]2Sc3ccccc3N(CCN(C)C)C(=O)[C@@H]2OC(C)=O)cc1` [DILTIAZEM], for which the figures for the CLH in [6] and in data set [7] were 47.6 µL/min/g and 75.4 µL/min/g, respectively. The figures for the Michaelis constant (Km) in data set [4] (liver microsomes) and in [5] (liver microsomes) were 10 µM and 9.8 µM, respectively.
`CCc1cccc2cc(C(O)CNC(C)(C)C)oc12` (stereo not drawn) [BUFURALOL]: in data set [15], the clearance was found to be 3 µL/min/mg. Further, the CLH turned out to be 31 µL/min/g in data set [6] and 32.3 µL/min/g in [7]. For the same molecule, the Km turned out to be 11.7 µM in data set [4] (microsomes) and 12.8 µM in [5] (microsomes).

B1: Cytochrome P450 1A2 (Homo sapiens) (protein)
chain: T3 sequence (P05177 whole entry)
For B1, in data set [16], the Michaelis constant (Km) turned out to be 5 µM and the maximum rate (Vmax) stood at 0.000117 µmol/min.

B2: Cytochrome P450 2D6 (Homo sapiens) (protein)
chain: MGLEALVPLAVIVAIFLLLVDLMHRRQRWAARYPPGPLPLPGLGNLLHVDFQNTPYCFDQLRRRFGDVFSLQLAWTPVVVLNGLAAVREALVTHGEDTADRPPVPITQILGFGPRSQGVFLARYGPAWREQRRFSVSTLRNLGLGKKSLEQWVTEEAACLCAAFANHSGRPFRPNGLLDKAVSNVIASLTCGRRFEYDDPRFLRLLDLAQEGLKEESGFLREVLNAVPVLLHIPALAGKVLRFQKAFLTQLDELLTEHRMTWDPAQPPRDLTEAFLAEMEKAKGNPESSFNDENLRIVVADLFSAGMVTTSTTLAWGLLLMILHPDVQRRVQQEIDDVIGQVRRPEMGDQAHMPYTTAVIHEVQRFGDIVPLGVTHMTSRDIEVQGFRIPKGTTLITNLSSVLKDEAVWEKPFRFHPEHFLDAQGHFVKPEAFLPFSAGRRACLGEPLARMELFLFFTSLLQHFSFSVPTGQPRPSHHGVFAFLVSPSPYELCAVPR
With B2, in data set [17], the Michaelis-Menten constant (Km) was determined as 8.2 µM and the Vmax worked out at 7e-05 µmol/min.

B3: Cytochrome P450 2C19 (Homo sapiens) (protein)
chain: MDPFVVLVLCLSCLLLLSIWRQSSGRGKLPPGPTPLPVIGNILQIDIKDVSKSLTNLSKIYGPVFTLYFGLERMVVLHGYEVVKEALIDLGEEFSGRGHFPLAERANRGFGIVFSNGKRWKEIRRFSLMTLRNFGMGKRSIEDRVQEEARCLVEELRKTKASPCDPTFILGCAPCNVICSIIFQKRFDYKDQQFLNLMEKLNENIRIVSTPWIQICNNFPTIIDYFPGTHNKLLKNLAFMESDILEKVKEHQESMDINNPRDFIDCFLIKMEKEKQNQQSEFTIENLVITAADLLGAGTETTSTTLRYALLLLLKHPEVTAKVQEEIERVIGRNRSPCMQDRGHMPYTDAVVHEVQRYIDLIPTSLPHAVTCDVKFRNYLIPKGTTILTSLTSVLHDNKEFPNPEMFDPRHFLDEGGNFKKSNYFMPFSAGKRICVGEGLARMELFLFLTFILQNFNLKSLIDPKDLDTTPVVNGFASVPPFYQLCFIPV
On to B3, for which, in data set [16], the Michaelis-Menten constant (Km) was 5 µM and the Vmax worked out at 0.000117 µmol/min.

(Values after ChEMBL document CHEMBL3526124, “Optimized experimental design for the estimation of enzyme kinetic parameters: an experimental evaluation” (Drug Metab Dispos, 2012).)
